Source: patent publication US10576085B2, “Substituted aminopurine compounds, compositions thereof, and methods of treatment therewith” (Signal Pharmaceuticals, LLC, priority 2016, dated 2020)

Tests used:
[1] = system: MiaPaCa-2; assay: Proliferation, CellTiter-Glo, 72 h; assay type: cell-based; conditions: MiaPaCa-2, Pancreas
[2] = system: FOCUS; assay: Apoptosis, Caspase 3/7-Glo; assay type: cell-based; conditions: lowest concentration inducing 2-fold increase of cleaved caspase 3/7 vs DMSO
Description: (§1) Prior to testing, cells were grown and expanded in culture flasks to provide sufficient amounts of starting material. Cells were then diluted to the appropriate densities and added directly to the compound-spotted 384-well plates. Cells were allowed to grow for 72 h at 37° C./5% CO2. At the time when compound was added (t0), initial cell number was assessed via a viability assay (Cell Titer-Glo) by quantifying the level of luminescence generated by ATP present in viable cells. After 72 h, cell viability of compound-treated cells was assessed via Cell Titer-Glo and luminescence measurement. The apoptotic response to Compound 1 was assessed by quantifying the activities of caspase 3 and caspase 7 (Caspase 3/7-Glo) in treated cells and DMSO control cells.
(§2) Proliferation and apoptosis were measured using CellTiter-Glo and Caspase 3/7-Glo. CalX2 values are the lowest concentration at which Compound 1 induces a 2-fold increase of cleaved caspase 3/7 compared to DMSO control. Proliferation and apoptosis data is the average of 3 experiments.

[3] = system: PLC-PRF-5; assay: Apoptosis, Caspase 3/7-Glo; assay type: cell-based; conditions: lowest concentration inducing 2-fold increase of cleaved caspase 3/7 vs DMSO
Description: as §1, §2

[4] = system: JHH-7; assay: Apoptosis, Caspase 3/7-Glo; assay type: cell-based; conditions: lowest concentration inducing 2-fold increase of cleaved caspase 3/7 vs DMSO
Description: as §1, §2

[5] = system: SNU-182; assay: Apoptosis, Caspase 3/7-Glo; assay type: cell-based; conditions: lowest concentration inducing 2-fold increase of cleaved caspase 3/7 vs DMSO
Description: as §1, §2

[6] = system: HuH-7; assay: Apoptosis, Caspase 3/7-Glo; assay type: cell-based; conditions: lowest concentration inducing 2-fold increase of cleaved caspase 3/7 vs DMSO
Description: as §1, §2

[7] = system: JHH-5; assay: Apoptosis, Caspase 3/7-Glo; assay type: cell-based; conditions: lowest concentration inducing 2-fold increase of cleaved caspase 3/7 vs DMSO
Description: as §1, §2

[8] = system: Hep3B; assay: Apoptosis, Caspase 3/7-Glo; assay type: cell-based
Description: as §1, §2

[9] = system: HLE; assay: Apoptosis, Caspase 3/7-Glo; assay type: cell-based; conditions: lowest concentration inducing 2-fold increase of cleaved caspase 3/7 vs DMSO
Description: as §1, §2

[10] = system: SNU-449; assay: Apoptosis, Caspase 3/7-Glo; assay type: cell-based; conditions: lowest concentration inducing 2-fold increase of cleaved caspase 3/7 vs DMSO
Description: as §1, §2

[11] = system: SNU-423; assay: Apoptosis, Caspase 3/7-Glo; assay type: cell-based; conditions: lowest concentration inducing 2-fold increase of cleaved caspase 3/7 vs DMSO
Description: as §1, §2

[12] = system: HepG2/C3A; assay: Apoptosis, Caspase 3/7-Glo; assay type: cell-based; conditions: lowest concentration inducing 2-fold increase of cleaved caspase 3/7 vs DMSO
Description: as §1, §2

[13] = system: SK-HEP-1; assay: Apoptosis, Caspase 3/7-Glo; assay type: cell-based; conditions: lowest concentration inducing 2-fold increase of cleaved caspase 3/7 vs DMSO
Description: as §1, §2

[14] = system: SNU-387; assay: Apoptosis, Caspase 3/7-Glo; assay type: cell-based; conditions: lowest concentration inducing 2-fold increase of cleaved caspase 3/7 vs DMSO
Description: as §1, §2

[15] = system: SNU-475; assay: Apoptosis, Caspase 3/7-Glo; assay type: cell-based; conditions: lowest concentration inducing 2-fold increase of cleaved caspase 3/7 vs DMSO
Description: as §1, §2

[16] = system: JHH-6; assay: Apoptosis, Caspase 3/7-Glo; assay type: cell-based; conditions: lowest concentration inducing 2-fold increase of cleaved caspase 3/7 vs DMSO
Description: as §1, §2

[17] = system: HepG2; assay: Apoptosis, Caspase 3/7-Glo; assay type: cell-based; conditions: lowest concentration inducing 2-fold increase of cleaved caspase 3/7 vs DMSO
Description: as §1, §2

[18] = system: HuH-6-Clone5; assay: Apoptosis, Caspase 3/7-Glo; assay type: cell-based; conditions: lowest concentration inducing 2-fold increase of cleaved caspase 3/7 vs DMSO
Description: as §1, §2

[19] = system: HLF; assay: Apoptosis, Caspase 3/7-Glo; assay type: cell-based; conditions: lowest concentration inducing 2-fold increase of cleaved caspase 3/7 vs DMSO
Description: as §1, §2

[20] = system: JHH-4; assay: Apoptosis, Caspase 3/7-Glo; assay type: cell-based; conditions: lowest concentration inducing 2-fold increase of cleaved caspase 3/7 vs DMSO
Description: as §1, §2

[21] = system: HuCCT1; assay: Apoptosis, Caspase 3/7-Glo; assay type: cell-based; conditions: lowest concentration inducing 2-fold increase of cleaved caspase 3/7 vs DMSO
Description: as §1, §2

[22] = system: JHH-2; assay: Apoptosis, Caspase 3/7-Glo; assay type: cell-based; conditions: lowest concentration inducing 2-fold increase of cleaved caspase 3/7 vs DMSO
Description: as §1, §2

[23] = system: HuH-1; assay: Apoptosis, Caspase 3/7-Glo; assay type: cell-based; conditions: lowest concentration inducing 2-fold increase of cleaved caspase 3/7 vs DMSO
Description: as §1, §2

[24] = system: JHH-1; assay: Apoptosis, Caspase 3/7-Glo; assay type: cell-based; conditions: lowest concentration inducing 2-fold increase of cleaved caspase 3/7 vs DMSO
Description: as §1, §2

[25] = system: SNU-398; assay: Apoptosis, Caspase 3/7-Glo; assay type: cell-based; conditions: lowest concentration inducing 2-fold increase of cleaved caspase 3/7 vs DMSO
Description: as §1, §2

[26] = biological target: NLK (Homo sapiens, UniProt Q9UBE8); assay: Known kinases inhibited (no method given); assay type: biochemical
NLK, sequence (Q9UBE8 whole entry): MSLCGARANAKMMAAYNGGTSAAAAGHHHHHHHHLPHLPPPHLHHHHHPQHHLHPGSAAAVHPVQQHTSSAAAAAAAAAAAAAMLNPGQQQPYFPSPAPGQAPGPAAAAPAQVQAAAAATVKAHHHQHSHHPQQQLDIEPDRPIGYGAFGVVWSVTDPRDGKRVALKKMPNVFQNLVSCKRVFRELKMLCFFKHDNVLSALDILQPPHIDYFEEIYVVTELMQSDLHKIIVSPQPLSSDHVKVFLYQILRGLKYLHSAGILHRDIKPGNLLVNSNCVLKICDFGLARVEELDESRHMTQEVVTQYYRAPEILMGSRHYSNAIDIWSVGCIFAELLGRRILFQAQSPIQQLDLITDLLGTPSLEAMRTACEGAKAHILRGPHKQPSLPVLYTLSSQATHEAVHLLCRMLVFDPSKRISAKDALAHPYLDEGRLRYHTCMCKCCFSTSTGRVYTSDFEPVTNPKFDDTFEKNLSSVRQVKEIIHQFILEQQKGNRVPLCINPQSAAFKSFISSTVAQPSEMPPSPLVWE

[27] = system: PD-L1; assay: PD-L1 expression, Western blot, HOP62; assay type: cell-based
Description: The effect of Compound 1 was evaluated on PD-L1 expression levels. Cells were cultured in presence or absence of Compound 1 for indicated time before expression levels of PD-L1, DUSP4 and α-tubulin or α-actin were measured by Western blot. To detect surface levels of PD-L1, cells were treated with DMSO or Compound 1 at indicated concentrations for 48 h and cell surface expression of PD-L1 was detected using flow cytometry analysis (FACS) with an APC-labeled antibody to PD-L1 (clone 29E.1A3; BioLegend, San Diego, Calif.). Geometric mean of PD-L1 positive cells was determined by FlowJo 10 (Treestar, Ashland, Oreg.).

[28] = system: Axin2 expression in human bronchial epithelial cells; assay: Gene expression analysis, Axin2 RT-PCR, Wnt3a/RSPO3 stimulated; assay type: cell-based; conditions: 0.1, 1, 10 uM; Wnt3a / RSPO3 stimulation; 24 hours
Description: Human bronchial epithelial cells were cultured in T-150 flasks in BEpiCM growth medium and allowed to reach 80% confluency. Cells were plated in 12-well plastic culture plates at 150,000 cells per well in BEpiCM medium for 24 hours. After a 24-hour incubation, cells were treated with dimethyl sulfoxide (DMSO) as a control, Compound 1 at 0.1, 1, 10 uM, for 30 minutes. Cells were then stimulated with 100 ng/ml recombinant Wnt3a (formulated in phosphate buffered saline [PBS]), 350 pM RSPO3 (formulated in PBS) or a combination of Wnt3 and RSPO3 for 24 hours. Ribonucleic acid (RNA) was isolated using a Qiagen Rneasy Mini Kit according to manufacturer's instruction. Axin2 and gene expression was determined using reverse transcription polymerase chain reaction (RT-PCR) Taq-Man assays. Quantitative PCR (qPCR) was performed using SuperScript® III One-Step RT-PCR System and ran on a Viia 7 Real-Time PCR System. Data was normalized to glyceraldehyde 3-phosphate dehydrogenase. […] Gene expression was measured at 24 hours. […] (FIG. 22).

[29] = system: cell lines with mutated β-catenin; assay: Evaluation of sensitivity in cell lines having beta-catenin mutations; assay type: cell-based; conditions: FIG. 18, FIGS. 19A-19B
Description: The effect of Compound 1 on cell lines having β-catenin mutations was evaluated. (FIG. 18 and FIGS. 19A-19B).

Work on `C[C@]1(C(N)=O)CC[C@@H](n2c(Nc3c(Cl)cc(Cl)cc3Cl)nc3cnc(N[C@@H]4CCOC[C@H]4F)nc32)CC1` [Compound 1, cis-4-[2-{[(3S,4R)-3-fluorooxan-4-yl]amino}-8-(2,4,6-trichloroanilino)-9H-purin-9-yl]-1-methyl cyclohexane-1-carboxamide] yielded a GI50 [1] of 47.1 nM, a Cal_X2 [2] of 3.8562 and a Cal_X2 [3] of 3.8310. It also gave a Cal_X2 [4] of 4.7601, a Cal_X2 [5] of 5.2385 and a Cal_X2 [6] of 0.0118. The Cal_X2 [7] was 0.0139, the “Apoptosis induction CalX2” value ([8]; HCC, β-catenin Active) was 0.002 ± 0.002 µM and the Cal_X2 ([8]; lowest concentration inducing 2-fold increase of cleaved caspase 3/7 vs DMSO) was 0.0028. It also gave a Cal_X2 [9] of 10.0000, a Cal_X2 [10] of 10.0000 and a Cal_X2 [11] of 10.0000. It also gave a Cal_X2 [12] of 0.8273, a Cal_X2 [13] of 10.0000 and a Cal_X2 [14] of 0.0046. The Cal_X2 [15] was 10.0000, the Cal_X2 [16] was 10.0000 and the Cal_X2 [17] was 0.0129. It also gave a Cal_X2 [18] of 1.5813, a Cal_X2 [19] of 7.2156 and a Cal_X2 [20] of 0.0588. It also gave a Cal_X2 [21] of 0.0213, a Cal_X2 [22] of 0.2806 and a Cal_X2 [23] of 6.5641. For the same molecule, the Cal_X2 [24] was 0.0427, the Cal_X2 [25] was 0.0378 and the Kinase inhibition [26] was “inhibited”. The PD-L1 expression [27] was “directly inhibits PD-L1 expression”, the Axin2 expression [28] was “inhibits Axin2 expression” and the “Efficacy against cell lines with mutated β-catenin” value [29] was “showed efficacy”.
